This passage reports T/C results from PubChem BioAssay AID330 (DTP/NCI, 2004).

In this assay the test system is P388 leukemia ip, CD2F1 mice, survival T/C. As to the kind of experiment: NCI In Vivo Anticancer Drug Screen. Data for tumor model P388 Leukemia (intraperitoneal) in CD2F1 (CDF1) mice. The conditions noted are these: endpoint: median survival time, higher = longer survival. The essentials: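 Mice carrying the transplanted tumor received test compound or vehicle. Survival was recorded in each group, and the value is the treated-group measurement divided by that of the vehicle-treated control group.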

[1] abbreviates: dose: 60.0 mg/kg/injection, schedule: Q01DX005 (ip), vehicle: saline with Tween-80.
The mark [2] stands for this setting: dose: 120.0 mg/kg/injection, schedule: Q01DX005 (ip), vehicle: saline with Tween-80.
[3] abbreviates: dose: 50.0 mg/kg/injection, schedule: Q01DX005 (ip), vehicle: Klucel (hydroxypropylcellulose) (HPC).
Where [4] appears, read: dose: 100.0 mg/kg/injection, schedule: Q01DX005 (ip), vehicle: Klucel (hydroxypropylcellulose) (HPC).
[5] abbreviates: dose: 200.0 mg/kg/injection, schedule: Q01DX005 (ip), vehicle: Klucel (hydroxypropylcellulose) (HPC).
Setting [6] is: dose: 25.0 mg/kg/injection, schedule: Q04DX003 (ip), vehicle: saline with Tween-80.
Where [7] appears, read: dose: 50.0 mg/kg/injection, schedule: Q04DX003 (ip), vehicle: saline with Tween-80.
[8] abbreviates: dose: 200.0 mg/kg/injection, schedule: Q04DX003 (ip), vehicle: saline with Tween-80.
Setting [9] is: dose: 400.0 mg/kg/injection, schedule: Q04DX003 (ip), vehicle: saline with Tween-80.
Where [10] appears, read: dose: 240.0 mg/kg/injection, schedule: Q01DX005 (ip), vehicle: saline with Tween-80.
[11] abbreviates: dose: 50.0 mg/kg/injection, schedule: Q01DX009 (ip), vehicle: saline with Tween-80.
Where [12] appears, read: dose: 100.0 mg/kg/injection, schedule: Q01DX009 (ip), vehicle: saline with Tween-80.
[13] abbreviates: dose: 200.0 mg/kg/injection, schedule: Q01DX009 (ip), vehicle: saline with Tween-80.
[14] abbreviates: dose: 100.0 mg/kg/injection, schedule: Q04DX003 (ip), vehicle: saline with Tween-80.
[15] abbreviates: dose: 100.0 mg/kg/injection, schedule: Q04DX003 (ip), vehicle: saline.
Setting [16] is: dose: 200.0 mg/kg/injection, schedule: Q04DX003 (ip), vehicle: saline.

“And” between values parts separate entries of the source, which are not always exact repeats. Equal values may be shown once. Toxic doses and inconclusive results are not listed.

For `COC(=O)C(=O)c1c(C(=O)OC)nc2nnc(N)n2c1-c1cccc([N+](=O)[O-])c1`, the T/C (dose: 15.0 mg/kg/injection, schedule: Q01DX005 (ip), vehicle: saline with Tween-80) was 92 % of control; the T/C (dose: 30.0 mg/kg/injection, schedule: Q01DX005 (ip), vehicle: saline with Tween-80) is 91 % of control; the T/C under setting [1] is 88 % of control; the T/C under setting [2] was 86 % of control.

Take `O=C(CCl)Nc1nncs1`: the T/C is 100 % of control (dose: 12.5 mg/kg/injection, schedule: Q01DX009 (ip), vehicle: distilled water + Tween-80); 104 % of control (dose: 25.0 mg/kg/injection, schedule: Q01DX009 (ip), vehicle: distilled water + Tween-80); 106 % of control (dose: 50.0 mg/kg/injection, schedule: Q01DX009 (ip), vehicle: distilled water + Tween-80); 104 % of control (dose: 100.0 mg/kg/injection, schedule: Q01DX009 (ip), vehicle: distilled water + Tween-80); 100 % of control (dose: 200.0 mg/kg/injection, schedule: Q01DX009 (ip), vehicle: distilled water + Tween-80).

`COc1nc(N)nc2c1CSc1ccccc1-2`: the T/C was 97 % of control under setting [3], 97 % of control under setting [4] and 90 % of control under setting [5].

Regarding `c1ccc2c(c1)Sc1ccccc1N2CCCNC1=NCCO1`, the T/C runs as follows: (dose: 12.5 mg/kg/injection, schedule: Q04DX003 (ip), vehicle: saline with Tween-80) 94 % of control; under setting [6], 96 % of control; under setting [7], 87 % of control; under setting [8], 88 % of control; under setting [9], 90 % of control.

As to `C=C(C)C(=O)OC1C2C(=C)C(=O)OC2CC(C)C2OC2C(=O)C(C)(O)C1OC(=O)C(=C)C` (stereo not drawn), the T/C was 110 % of control (dose: 12.5 mg/kg/injection, schedule: Q04DX002 (ip), vehicle: Klucel (hydroxypropylcellulose) (HPC)); 110 % of control (dose: 25.0 mg/kg/injection, schedule: Q04DX002 (ip), vehicle: Klucel (hydroxypropylcellulose) (HPC)); 107 % of control (dose: 50.0 mg/kg/injection, schedule: Q04DX002 (ip), vehicle: Klucel (hydroxypropylcellulose) (HPC)).

As to `COc1ccc2nc(NC(=O)C(=O)C(C)C(=O)c3ccc(Cl)cc3)sc2c1` (stereo not drawn), the T/C is, setting by setting: under setting [1], 108 % of control; under setting [2], 98 % of control; under setting [10], 105 % of control.

On to `CC(C)B1N(C(C)(C)C)B(C(C)C)N(C(C)(C)C)B(C(C)C)N1C(C)(C)C`, for which the T/C by setting is: under setting [1], 93 % of control; under setting [2], 101 % of control; under setting [10], 104 % of control.

Turning to `Cc1cnc(Sc2ncccn2)c(C(=O)O)c1[N+](=O)[O-]`, the T/C reads like this: under setting [3], 101 % of control; under setting [4], 99 % of control; under setting [5], 100 % of control.

Regarding `CC(C)=CC1C(/C(C)=C/CCCCC(=O)O)C1(C)C` (stereo not drawn), the T/C was 101 % of control (dose: 100.0 mg/kg/injection, schedule: Q04DX002 (ip), vehicle: saline with Tween-80); 94 % of control (dose: 200.0 mg/kg/injection, schedule: Q04DX002 (ip), vehicle: saline with Tween-80); 96 % of control (dose: 400.0 mg/kg/injection, schedule: Q04DX002 (ip), vehicle: saline with Tween-80).

As for `CC(Br)CN(CC(C)Br)c1ccc(-c2ccccc2)cc1` (stereo not drawn), the T/C was 154 % of control (dose: 12.5 mg/kg/injection, schedule: Q01DX009 (ip), vehicle: Klucel (hydroxypropylcellulose) (HPC)); 164 % of control (dose: 25.0 mg/kg/injection, schedule: Q01DX009 (ip), vehicle: Klucel (hydroxypropylcellulose) (HPC)); 176 % of control and 181 % of control (dose: 50.0 mg/kg/injection, schedule: Q01DX009 (ip), vehicle: Klucel (hydroxypropylcellulose) (HPC)); 184 % of control (dose: 100.0 mg/kg/injection, schedule: Q01DX009 (ip), vehicle: Klucel (hydroxypropylcellulose) (HPC)).

On to `COc1ccc(CNSC(c2ccccc2)(c2ccccc2)c2ccccc2)cc1`, for which the T/C by setting is: (dose: 50.0 mg/kg/injection, schedule: Q01DX005 (ip), vehicle: saline with Tween-80) 98 % of control; (dose: 100.0 mg/kg/injection, schedule: Q01DX005 (ip), vehicle: saline with Tween-80) 101 % of control; (dose: 200.0 mg/kg/injection, schedule: Q01DX005 (ip), vehicle: saline with Tween-80) 97 % of control.

Turning to `CCCCC[C@@H]1CC=C[C@@H](NC(=O)OCc2ccccc2)[C@H]1/C=C/C(=O)CCCCC1OCCO1`, the T/C was 101 % of control (dose: 60.0 mg/kg/injection, schedule: Q01DX005 (ip), vehicle: DMSO); 93 % of control (dose: 120.0 mg/kg/injection, schedule: Q01DX005 (ip), vehicle: DMSO); 98 % of control (dose: 240.0 mg/kg/injection, schedule: Q01DX005 (ip), vehicle: DMSO).

Turning to `CCCCCCC(=O)CC(SCC)c1ccc(Cl)c(Cl)c1` (stereo not drawn), the T/C under setting [11] is 100 % of control, the T/C under setting [12] was 97 % of control and the T/C under setting [13] was 106 % of control.

`S=P(Oc1ccccc1)(N1CCCCN1)N1CCCCN1`: the T/C (dose: 60.0 mg/kg/injection, schedule: Q01DX005 (ip), vehicle: Klucel (hydroxypropylcellulose) (HPC)) is 97 % of control; the T/C (dose: 120.0 mg/kg/injection, schedule: Q01DX005 (ip), vehicle: Klucel (hydroxypropylcellulose) (HPC)) is 107 % of control; the T/C (dose: 240.0 mg/kg/injection, schedule: Q01DX005 (ip), vehicle: Klucel (hydroxypropylcellulose) (HPC)) was 100 % of control.

As to `COP1(=O)OC(C)=C(C)c2cccn21` (stereo not drawn), the T/C under setting [6] is 103 % of control; the T/C under setting [7] was 106 % of control; the T/C under setting [14] is 99 % of control and 96 % of control.

`COc1ccc(/C=C/c2c(C(=O)O)oc3ccccc23)cc1`: the T/C reads like this: under setting [11], 103 % of control; under setting [12], 95 % of control; under setting [13], 112 % of control.

In the case of `CC1=NN(c2ccc(S(=O)(=O)O)cc2)C(=O)/C1=C/c1ccc(Cl)cc1`, the T/C was 100 % of control (dose: 50.0 mg/kg/injection, schedule: Q04DX003 (ip), vehicle: saline sonified); 100 % of control (dose: 100.0 mg/kg/injection, schedule: Q04DX003 (ip), vehicle: saline sonified); 95 % of control (dose: 200.0 mg/kg/injection, schedule: Q04DX003 (ip), vehicle: saline sonified).

For the compound `C=C=C(C)C(c1ccccc1)N(C)C` (stereo not drawn), the T/C runs as follows: (dose: 50.0 mg/kg/injection, schedule: Q01DX005 (ip), vehicle: saline) 108 % of control; (dose: 100.0 mg/kg/injection, schedule: Q01DX005 (ip), vehicle: saline) 109 % of control.

In the case of `CN(C)c1nc(N/N=C\C(O)C(O)C(O)C(O)CO)nc(N(C)C)n1` (stereo not drawn), the T/C was 112 % of control under setting [14], 103 % of control under setting [8] and 102 % of control under setting [9].

On to `COC(=Nc1ccccc1)SSC(C)C`, for which the T/C by setting is: (dose: 25.0 mg/kg/injection, schedule: Q01DX009 (ip), vehicle: saline with Tween-80) 115 % of control; under setting [11], 115 % of control.

`CC(C)=CCC(/C=N/N=C(N)N)C(C)C` (stereo not drawn): the T/C reads like this: (dose: 6.25 mg/kg/injection, schedule: Q01DX005 (ip), vehicle: suspension in saline) 96 % of control; (dose: 12.5 mg/kg/injection, schedule: Q01DX005 (ip), vehicle: suspension in saline) 97 % of control; (dose: 25.0 mg/kg/injection, schedule: Q01DX005 (ip), vehicle: suspension in saline) 96 % of control.

For `CCOC(=O)/C=C/C(=O)O.CCOC(=O)/C=C/C(=O)O.[Mn].[NH-]CC(=O)O`, the T/C reads like this: under setting [15], 96 % of control; under setting [16], 96 % of control; (dose: 400.0 mg/kg/injection, schedule: Q04DX003 (ip), vehicle: saline) 98 % of control.

As for `CCN(C(=O)CCl)C(C)(C)C(SSSC(c1ccc(Cl)cc1)C(C)(C)N(CC)C(=O)CCl)c1ccc(Cl)cc1` (stereo not drawn), the T/C (dose: 50.0 mg/kg/injection, schedule: Q04DX003 (ip), vehicle: saline) is 104 % of control; the T/C under setting [15] is 113 % of control; the T/C under setting [16] was 109 % of control.
